Columns and labels:
[1] = test system: T1, soluble epoxide hydrolase (sEH); assay: Differential scanning fluorimetry (DSF) screen on sEH; type: binding; settings: 50 µM reference compound, triplicates repeated 3 times
T1 construct: For the expression of sEH-H and sEH-Fl transformed E.coli BL21 (DE3) cells were grown in 5052; made in house; host or cells: E. coli BL21 (DE3)

5‐lipoxygenase (5‐LOX) [2] = target: T2, 5‐lipoxygenase (5‐LOX) (Homo sapiens, UniProt P09917); assay: 5-LOX activity assay (HPLC detection of product formation); type: biochemical; settings: mean±standard deviation of three independent experiments
T2 construct: made in house; host or cells: E. coli BL21 (DE3)
T2 sequence (P09917 1-674): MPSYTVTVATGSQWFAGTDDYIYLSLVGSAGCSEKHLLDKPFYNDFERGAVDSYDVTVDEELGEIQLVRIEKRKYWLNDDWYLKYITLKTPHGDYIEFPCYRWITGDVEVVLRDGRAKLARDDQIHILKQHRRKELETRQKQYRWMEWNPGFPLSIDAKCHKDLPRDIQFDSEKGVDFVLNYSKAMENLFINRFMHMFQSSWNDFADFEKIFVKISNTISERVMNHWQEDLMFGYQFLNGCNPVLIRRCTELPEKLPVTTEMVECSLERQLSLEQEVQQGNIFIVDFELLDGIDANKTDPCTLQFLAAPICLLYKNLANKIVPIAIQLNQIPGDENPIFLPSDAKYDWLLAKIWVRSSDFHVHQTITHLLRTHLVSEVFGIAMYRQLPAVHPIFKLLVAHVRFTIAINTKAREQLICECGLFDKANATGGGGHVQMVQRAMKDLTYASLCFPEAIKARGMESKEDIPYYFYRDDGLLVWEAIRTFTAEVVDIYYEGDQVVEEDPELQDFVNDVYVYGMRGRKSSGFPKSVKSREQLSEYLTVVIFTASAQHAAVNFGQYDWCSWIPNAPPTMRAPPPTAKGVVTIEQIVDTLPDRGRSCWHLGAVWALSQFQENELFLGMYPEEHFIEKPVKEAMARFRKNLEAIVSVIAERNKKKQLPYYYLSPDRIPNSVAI
Description: (§1) For hit validation, we employed secondary assays with orthogonal readouts to confirm fragment activities. Biochemical activity assays were chosen for the enzymes sEH, LTA4H, and 5‐LOX. […] RXRα and FXR modulation was assessed in cell‐based hybrid reporter gene assays. All ten compounds were tested at a single concentration of 500 μM in the sEH and LTA4H activity assays and with a concentration of 100 μM on 5‐LOX, RXRα, and FXR. Fragments showing an inhibition greater than 50 % (sEH‐H and LTA4H) or greater than 70 % (5‐LOX) as well as the hits determined in the DSF experiments were further characterized in full concentration‐response curves between 0.1 and 1000 μM. […] As alternative cell‐free assay we employed isothermal titration calorimetry (ITC) to determine binding affinity of the fragments towards the LBDs of both nuclear receptors. ITC was performed with a protein concentration of 50 μM and compound concentrations of 250 μM.
(§2) The 10 fragments showing dual activity in the DSF experiments were validated by functional assay screening with a fixed concentration of 500 µM in case of sEH-H and LTA4H, 100 µM in case of 5-LOX and 30 µM, 10 µM and 5 µM in case of FXR and […]
(§3) % (5-LOX) as well as the hits determined in the DSF experiments were further measured with concentrations between 1000 µM and 0.1 µM (sEH-H and LTA4H) and between 300 µM and 1 µM (5-LOX). The sEH and LTA4H activity assays were performed as triplicate and repeated 3 times. The 5-LOX activity assay was performed with one point per concentration and repeated 3 times Raw data was first analyzed in Microsoft Office Excel (2013), before IC50 curves were plotted and further analyzed using GraphPad Prism 7 and GraphPad Prism 8 for the shown graphs .
The eight approved drugs were measured in the orthogonal assay systems analogous to the fragments. […]
For the 5-LOX they […]
were measured as single point measurement in three different experiments with concentrations between 300 µM and 1 µM. For […]
Raw data was processed according to the fragments. […]

[3] = target: T3, soluble epoxide hydrolase (sEH) (Homo sapiens, UniProt P34913); assay: sEH-H activity assay (fluorogenic substrate PHOME); type: biochemical; settings: approved drug, 1-1000 µM
T3 construct: made in house; host or cells: E. coli BL21 (DE3)
T3 sequence (P34913 1-555): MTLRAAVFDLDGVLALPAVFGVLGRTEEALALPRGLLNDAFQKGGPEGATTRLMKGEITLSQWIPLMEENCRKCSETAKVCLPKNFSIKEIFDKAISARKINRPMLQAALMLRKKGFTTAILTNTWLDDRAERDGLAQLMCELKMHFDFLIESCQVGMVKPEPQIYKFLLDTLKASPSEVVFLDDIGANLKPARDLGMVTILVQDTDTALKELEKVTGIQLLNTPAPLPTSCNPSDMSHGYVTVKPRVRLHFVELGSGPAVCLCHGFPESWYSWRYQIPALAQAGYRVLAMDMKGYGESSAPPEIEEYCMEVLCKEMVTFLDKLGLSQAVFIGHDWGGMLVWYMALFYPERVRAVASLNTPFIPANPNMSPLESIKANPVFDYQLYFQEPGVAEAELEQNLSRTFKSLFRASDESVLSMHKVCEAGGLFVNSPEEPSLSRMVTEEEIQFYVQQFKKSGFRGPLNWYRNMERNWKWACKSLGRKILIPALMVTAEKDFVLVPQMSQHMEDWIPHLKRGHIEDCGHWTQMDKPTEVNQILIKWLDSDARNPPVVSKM
Description: as §1, §2, §3
The eight approved drugs were measured in the orthogonal assay systems analogous to the fragments. The approved drugs were […]
For the sEH-H and LTA4H, they were measured as triplicate in concentrations between 1000 µM and 1 µM and each measurement was repeated three times. For the 5-LOX they were measured as single point measurement in three different experiments with concentrations between 300 µM and 1 µM. For […]
Raw data was processed according to the fragments.
The sEH-H activity assay was performed adapted from Hahn et al.5 and Lukin et al.6. In short 1 µl of compound dilution in DMSO or pure DMSO (for the positive and negative control) was placed in a black 96-well plate (Thermo Scientific™ Nunc™ F96 MicroWell™ Black Polystyrene Plate) and then 89 µl of protein-mix or buffer mix (without protein as negative control) were added and the mixture was incubated for 30 min at room temperature. 10 µl of 0.6 mM 3-phenyl-cyano(6-methoxy-2-naphthalenyl)methylester-2-oxiraneacetic acid (PHOME) were added to every well. The Plate was measured every minute for 45 min. Final concentration per well was 3 nM sEH-Fl, 0.001 % Triton X-100, 25 mM Bis-tris, 0.1 mg/ml BSA, pH = 7.0, 1.6% DMSO […]

[4] = test system: sEH, LTA4H, 5‐LOX, RXRα, FXR; assay: DSF primary screen, statement over all five proteins; type: binding; settings: 500 μM
Excerpt: For the primary screen of this fragment library, we employed differential scanning fluorimetry (DSF, also known as thermal shift). DSF is generally applicable to a large panel of protein targets and provides a robust, low‐cost screening technology for fragment‐based approaches. ^[20] All five proteins of our interest are soluble and were recombinantly expressed in Escherichia coli. We performed an initial fragment screen on all five targets by DSF. The use of a uniform screening method for all targets ensured consistent data and provided the opportunity to identify false positive hits which interfered with the screening technology. The conditions of the DSF assay were optimized for the desired screening and validated with reference compounds (Table S1 in the Supporting Information). Compounds causing a positive thermal shift ΔT m≥1.0 °C were considered as active. […]
The measurements were performed using a iCycler iQ™ Single -Color Real Time PCR device with a heat rate of 1 °C per min, an excitation wavelength of 490 nm and an emission wavelength of 570 nm. The first derivation calculated by MyiQ Op tical Software 1.0 was analyzed using Microsoft Office Excel 2013 by comparing the maxima. […]

RXRα = test system: T4, RXRα; assay: Differential scanning fluorimetry (DSF) screen on RXRα; type: binding; settings: 50 µM reference compound; measured once as triplicate; no melting curve with DMSO
T4 construct: MBP (N, cleaved yes); poly-N-tag, His8-tag, TEV site (N, cleaved yes); made in house; host or cells: E. coli T7-express with pGro7 (GroEL/ES)

5‐lipoxygenase (5‐LOX) [5] = target: T2, 5‐lipoxygenase (5‐LOX); assay: Differential scanning fluorimetry (DSF) screen on 5-LOX; type: binding; settings: 100 µM reference compound; measured once as triplicate
[6] = target: T5, leukotriene A4 hydrolase (LTA4H) (Homo sapiens, UniProt P09960); assay: Differential scanning fluorimetry (DSF) screen on LTA4H; type: binding; settings: 50 µM reference compound, triplicates repeated 3 times
T5 construct: made in house; host or cells: E. coli BL21 (DE3)
T5 sequence (P09960 1-611): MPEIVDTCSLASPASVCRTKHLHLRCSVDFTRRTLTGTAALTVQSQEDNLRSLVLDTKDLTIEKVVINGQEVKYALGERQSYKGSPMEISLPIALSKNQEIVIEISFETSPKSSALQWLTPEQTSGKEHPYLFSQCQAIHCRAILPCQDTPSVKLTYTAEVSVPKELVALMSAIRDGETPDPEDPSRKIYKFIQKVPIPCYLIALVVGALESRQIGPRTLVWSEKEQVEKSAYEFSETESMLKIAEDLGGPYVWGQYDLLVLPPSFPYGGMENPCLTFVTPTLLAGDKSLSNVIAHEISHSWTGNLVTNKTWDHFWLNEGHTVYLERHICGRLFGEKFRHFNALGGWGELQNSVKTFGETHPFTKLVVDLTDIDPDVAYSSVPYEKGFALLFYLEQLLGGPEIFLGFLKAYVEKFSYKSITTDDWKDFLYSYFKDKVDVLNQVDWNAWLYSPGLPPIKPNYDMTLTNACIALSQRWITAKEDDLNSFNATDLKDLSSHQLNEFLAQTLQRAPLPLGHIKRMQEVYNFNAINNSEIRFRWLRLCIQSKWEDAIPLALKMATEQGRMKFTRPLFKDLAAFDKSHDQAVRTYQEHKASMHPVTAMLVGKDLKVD

In the case of `O=C(Nc1ccc(I)cc1)NC1CCCCC1` [CIU], the “TM(ref) sEH-H” value [1] is reported as 62.2 ± 0.4 °C and the “ΔTM sEH-H” value ([1]; in °C) is reported as 5.6 ± 0.5.

In the case of `CC(C)COCC(CN(Cc1ccccc1)c1ccccc1)N1CCCC1` (stereo not shown) [Compound 15, bepridil, reference compound], the IC50 (5‐lipoxygenase (5‐LOX) [2]) is reported as 3.2 µM and the “activity towards sEH” value [3] is reported as “completely loosing activity”.

With `O=C(NCc1cccnc1)c1ccc(O)cc1` [Compound 22] the “activity in the DSF screen” value [4] was “no activity”.

With `Cc1nc2ccccc2[nH]1` [Compound 24] the “activity in the DSF screen” value [4] was “no activity”.

For `CC1(C)CCC(C)(C)c2cc(C3(c4ccc(C(=O)O)cc4)OCCO3)ccc21` [SR11237], the “TM(ref) RXRα” value (RXRα) was 59.0 ± 0.0 °C.

For `C[C@H](C#Cc1ccc(Cc2ccc(F)cc2)s1)N(O)C(N)=O` [atreleuton], the “TM(ref) 5-LOX” value (5‐lipoxygenase (5‐LOX) [5]) was 63.7 ± 0.6 °C.

With `CC(C)C[C@H](NC(=O)[C@@H](O)[C@H](N)Cc1ccccc1)C(=O)O` [bestatin] the “TM(ref) LTA4H” value [6] was 60.7 ± 0.9 °C and the “ΔTM LTA4H” value ([6]; in °C) was 5.9 ± 0.7.
